# Values of other authors as cited in patent publication US8163703B2, “Hepatitis C therapies” (BioCryst Pharmaceuticals, Inc., priority 2005, dated 2012).
# System: HCV
# Conditions: ribavirin alone
smiles,measurement,value
"NC(=O)c1ncn([C@@H]2O[C@H](CO)[C@@H](O)[C@H]2O)n1 [Ribavirin, 1-β-D-ribofuranosyl-1-1,2,4-triazole-3-carboxamide]",patients in whom serum amino transferase levels are reduced to normal,40%
